The results in this text go back to patent US8178506B2, “Oligomeric compounds and compositions for use in modulation of small non-coding RNAs” (Regulus Therapeutics Inc., priority 2003, dated 2012).

In the oligonucleotide strings, read from the 5' end, every base follows the letter of its sugar. An asterisk marks phosphorothioate; unmarked linkages are phosphodiester. Other units and linkages are bracketed, terminal groups are in braces. A string of capitals states the bases alone. e = 2'-O-(2-methoxyethyl) (MOE); [5mC] = 5-methylcytosine; d = 2'-deoxy (DNA)

Data set [1] concerns mir-21 miRNA. As to the kind of experiment: pGL3-mir-21 sensor luciferase assay in HeLa cells. Format: cell-based, human. From the text: In order to assess the ability of miRNAs to bind predicted miRNA binding sites and regulate the expression of the luciferase reporter, in some embodiments, expression systems based on the pGL3-Control (Promega Corp., Madison Wis.) reporter vector and comprising either a mir-15a, mir-21, or a mir-23b miRNA binding site were developed and used in transient transfections of HeLa cells to determine whether the endogenous mir-15a, mir-21, or mir-23b miRNAs, respectively, could repress luciferase reporter gene expression.
The pGL3-mir-21 sensor plasmid was created by cloning the sequence ([…]; SEQ ID NO: 335), representing a sequence complementary to the mir-21 miRNA, into the Xba site of the pGL3-Control plasmid, placing the potential miRNA-binding site in the 3′UTR of the luciferase reporter. This reporter plasmid was used to transfect HeLa cells and it was observed that the endogenous mir-21 miRNA was able to inhibit luciferase expression from the pGL3-mir-21 sensor plasmid. Thus, to further evaluate the ability of the mir-21 miRNA to bind this target site encoded by the pGL3-mir-21 sensor plasmid, and to assess the ability of oligomeric compounds to interfere with mir-21-mediated silencing, pGL3-mir-21 sensor-expressing HeLa cells were treated with varying concentrations (10 nM or 50 nM) of the following oligomeric compounds: ISIS Number 327917 (SEQ ID NO: 335), a phosphorothioate uniform 2′-MOE oligomeric compound; ISIS Number 338697 ([…]; herein incorporated as SEQ ID NO: 524), a uniform 2′-MOE oligomeric compound targeting the mir-21 pri-miRNA molecule; and ISIS Number 328415 (SEQ ID NO: 524), a 2′-MOE 5-10-5 gapmer oligomeric compound targeting the mir-21 pri-miRNA. The uniform 2′-MOE phosphorothioate oligomeric compound ISIS Number 327901 (SEQ ID NO: 319) targeting an unrelated miRNA (mir-143) was used as a negative control. The data are the average of three trials and are presented in Table 44 as percent untreated control (luciferase plasmid only, not treated with oligomeric compound) luciferase expression, normalized to pRL-CMV levels.
In one embodiment, the oligomeric compounds ISIS Number 327917 (SEQ ID NO: 335), the phosphorothioate uniform 2′-MOE targeting mature mir-21; ISIS Number 358768 (SEQ ID NO: 918), the uniform 2′-MOE targeting the mir-21 pri-miRNA which stimulated the largest increase in pri-miRNA expression levels by real time quantitative RT-PCR; and ISIS Number 345382 (SEQ ID NO: 335), the 5-10-7 phosphorothioate 2′-MOE gapmer targeting mature mir-21 were selected for dose response studies in HeLa cells using the luciferase reporter system described in Example 27. ISIS Number 342683 (SEQ ID NO: 790), representing the scrambled nucleotide sequence of an unrelated PTP1B antisense oligonucleotide, was used as a negative control. HeLa cells expressing the pGL3-mir-21 sensor plasmid (described in Example 27) were treated with 1.9, 5.5, 16.7, and 50 nM of these oligomeric compounds, to assess the ability of oligomeric compounds to interfere with endogenous mir-21-mediated silencing of the pGL3-mir-21 sensor plasmid. The data are presented in Table 50 as percent untreated control (luciferase plasmid only, not treated with oligomeric compound) luciferase expression, normalized to pRL-CMV levels.

Data set [2] deals with IL-12 mRNA. As to the kind of experiment: IL-12 mRNA in LPS-activated primary murine macrophages. Format: cell-based, mouse. The conditions noted are these: LPS, average of 3 treatments.
The test system of data set [3] is IL-6 mRNA. As to the kind of experiment: IL-6 mRNA in LPS-activated primary murine macrophages. Format: cell-based, mouse. Particulars: average of 3 treatments. Here is the method: To investigate the role of miRNAs in the immune response, oligomeric compounds of the present invention targeting miRNAs were tested for their effects upon lipopolysaccharide (LPS)-activated primary murine macrophages. Macrophages participate in the immune response, for example, in the recognition and phagocytosis of microorganisms, including bacteria. Interferon-gamma (IFN-gamma) released by helper T cells is one type of signal required for macrophage activation, and LPS can serve as an additional stimulus. LPS is a component of the gram-negative bacterial cell wall and acts as an agonist for toll-like receptor 4 (TLR4), the primary LPS receptor expressed by macrophages. The proinflammatory cytokines interleukin-12 (IL-12) and interleukin-6 (IL-6) are induced by LPS treatment of macrophages, thus the expression of the mRNAs encoding these cytokines was used to evaluate the response of macrophages to LPS following treatment with oligomeric compounds targeting miRNAs.
Macrophages were isolated as follows. Female C57B1/6 mice (Charles River Laboratories, Wilmington, Mass.) were injected intraperitoneally with 1 ml 3% thioglycollate broth (Sigma-Aldrich, St. Louis, Mo.), and peritoneal macrophage cells were isolated by peritoneal lavage 4 days later. The cells were plated in 96-well plates at 40,000 cells/well for one hour in serum-free RPMI adjusted to contain 10 mM HEPES (Invitrogen Life Technologies, Carlsbad, Calif.), allowed to adhere, then non-adherent cells were washed away and the media was replaced with RPMI containing 10 mM HEPES, 10% FBS and penicillin/streptomycin (“complete” RPMI; Invitrogen Life Technologies, Carlsbad, Calif.).
Oligomeric compounds were introduced into the cells using the non-liposomal transfection reagent FuGENE 6 Transfection Reagent (Roche Diagnostics Corp., Indianapolis, Ind.). Oligomeric compound was mixed with FuGENE 6 in 1 mL of serum-free RPMI to achieve a concentration of 10 μL FuGENE per 1000 nM oligomeric compound. The oligomeric compound/FuGENE complex was allowed to form at room temperature for 20 minutes. This mixture was diluted to the desired concentration of oligomeric compound by the addition of the appropriate volume of complete RPMI. The final ratio of FuGENE 6 to oligomeric compound was 1 μL of FuGENE 6 per 100 nM oligomeric compound. A volume of 100 μL of oligomeric compound/FuGENE/RPMI was added to each well of the 96-well plate in which the macrophages were cultured. Each oligomeric compound treatment was repeated in triplicate.
Following oligomeric compound treatment, cells were stimultated with LPS. Cells were cultured in the presence of the transfection complex for approximately 24 to 28 hours at 37° C. and 5% CO2, after which the medium containing the transfection complex was removed from the cells, and complete RPMI containing 100 ng/mL LPS (Sigma-Aldrich Corp., St. Louis, Mo.) was added to the cells for a period of approximately 24 hours. Control samples included (1) cells receiving no oligomeric compound, stimulated with LPS and (2) cells receiving neither oligomeric compound nor LPS treatment.
In another embodiment, following oligomeric compound treatment, cells were first activated by IFN-gamma, to amplify the response to LPS. Cells were cultured in the presence of the transfection complex for approximately 24 hours at 37° C. and 5% CO2, at which point the medium containing the transfection complex was removed from the cells, and complete RPMI containing 100 ng/mL recombinant mouse IFN-gamma (R&D Systems, Minneapolis, Minn.) was added to the cells. After the 4 hour treatment with INF-gamma, cells were treated with 100 ng/mL LPS for approximately 24 hours. Control samples included (1) cells receiving no oligomeric compound, stimulated with LPS and (2) cells receiving neither oligomeric compound nor LPS treatment. […]

Data set [4] deals with T47D cells. The experiment in a line: Caspase-3 activity assay (apoptosis) in T47D cells. The conditions noted are these: T47D cells, 200 nM, 48 hours, relative to untreated control.
Setting [5] is: Table 44, pGL3-mir-21 sensor-expressing HeLa cells, 10 nM.
The mark [6] stands for this setting: Table 44, pGL3-mir-21 sensor-expressing HeLa cells, 50 nM.

As to “342683 (antisense CCTTCCCTGAAGGTTCCTCCTT; scrambled control, further chemistry not given here) [compound 342683]”, the “luciferase expression % UTC” value is recorded as 127 % UTC in data set [1] (Table 50, pGL3-mir-21 sensor-expressing HeLa cells, 1.9 nM, normalized to pRL-CMV); 171 % UTC in data set [1] (Table 50, pGL3-mir-21 sensor-expressing HeLa cells, 5.5 nM, normalized to pRL-CMV); 104 % UTC in data set [1] (Table 50, pGL3-mir-21 sensor-expressing HeLa cells, 16.7 nM, normalized to pRL-CMV); 108 % UTC in data set [1] (Table 50, pGL3-mir-21 sensor-expressing HeLa cells, 50 nM, normalized to pRL-CMV). Also, the “IL-12 mRNA expression, % UTC” value in data set [2] (75 nM, +IFN) is 92 % UTC; in data set [2] (75 nM, −IFN), 121 % UTC; in data set [2] (150 nM, +IFN), 76 % UTC; in data set [2] (150 nM, −IFN) it was 165 % UTC; in data set [2] (300 nM, +IFN), 65 % UTC; in data set [2] (300 nM, −IFN), 147 % UTC. The “IL-12 mRNA expression, % UTC” value in data set [2] (600 nM, +IFN) is recorded as 64 % UTC; in data set [2] (600 nM, −IFN) it was 130 % UTC. The “IL-6 mRNA expression, % UTC” value came to 115 % UTC in data set [3] (75 nM, +IFN); 135 % UTC in data set [3] (75 nM, −IFN); 86 % UTC in data set [3] (150 nM, +IFN); 161 % UTC in data set [3] (150 nM, −IFN); 110 % UTC in data set [3] (300 nM, +IFN); 156 % UTC in data set [3] (300 nM, −IFN). The “IL-6 mRNA expression, % UTC” value in data set [3] (600 nM, +IFN) stood at 149 % UTC; in data set [3] (600 nM, −IFN), 311 % UTC.

Regarding “328415 (antisense eT*eG*e[5mC]*e[5mC]*eA*dT*dG*dA*dG*dA*dT*dT*d[5mC]*dA*dA*e[5mC]*eA*eG*eT*e[5mC]) [compound 328415]”, the “luciferase expression % UTC” value in data set [1] (setting [5]) turned out to be 66.0 % UTC; in data set [1] (setting [6]), 104.4 % UTC. The “Fold Increase over UTC (caspase activity)” value in data set [4] came out at 1.1.

“338697 (antisense TGCCATGAGATTCAACAGTC; all 2'-MOE, all phosphorothioate, methylation of C not given here) [compound 338697]”: the “luciferase expression % UTC” value came out at 87.0 % UTC in data set [1] (setting [5]) and 84.8 % UTC in data set [1] (setting [6]).
